The target in assay [1] is T1, BTK (Homo sapiens, UniProt Q06187).
T1 construct: purchased Nanosyn, Santa Clara, Calif; host or cells: 293HEK
Kind of assay: BTK kinase electrophoretic mobility shift assay (MSA). The settings on record: 50 μM ATP, 0.5 nM BTK enzyme (Nanosyn-293HEK, WT), 3 hours at 25° C.; all examples except 50, 51, 62 and 63; read-out: BTK IC50. Type of assay: biochemical. The procedure:
Kinase activity, unless otherwise indicated, was measured in vitro using an electrophoretic mobility shift assay (MSA). The phosphorylation of a peptide substrate by BTK and other kinases was measured. The kinase reactions were assembled in a total volume of 25 μL per well in 384 well plates. The following was added to each well: compound buffer (or control); enzyme buffer; and substrate buffer, as further described below.
The terminated reactions were analyzed using a 12 channel LABCHIP® 3000 microfluidic detection instrument (available from Caliper Life Sciences, Waltham, Mass.). […] Change in the relative fluorescence intensity of the substrate and product peaks was the parameter measured, reflecting enzyme activity. In the presence of an inhibitor, the ratio between product and substrate was altered. The signal of the product decreased, while the signal of the substrate increased. Capillary electrophoregrams (RDA acquisition files) were analyzed using HTS Well Analyzer software (available from Caliper Life Sciences, Waltham, Mass.).
Activity in each sample was determined as the product to sum ratio (PSR): P/(S+P), where P was the peak height of the product peptide and S was the peak height of the substrate peptide. For each compound, enzyme activity was measured at various concentrations (12 concentrations of compound spaced by 3× dilution intervals). Negative control samples (00 inhibition in the absence of inhibitor) and positive control samples (10000 inhibition, in the presence of 20 mM EDTA) were assembled in replicates of four and were used to calculate 00 inhibition values for each inhibitor at each concentration. Percent inhibition (Pinh) was determined using following equation: Pinh=(PSR0%−PSRinh)/(PSR0%−PSR100%)*100, where PSRinh was the product sum ratio in the presence of inhibitor, PSR0% was the average product sum ratio in the absence of inhibitor and PSR100% was the average product sum ratio in 100%−inhibition control samples.
The IC50 values of inhibitors were determined by 4 parameter sigmoidal dose response model fitting of the inhibition curves (Pinh versus inhibitor concentration) using XLfit® 4 software (available from IDBS, Boston, Mass.).

Assay [2] deals with T2, Phosphorylation of Y223 of BTK (Homo sapiens, UniProt Q06187).
T2 construct: host or cells: healthy human whole blood, 3 donors
T2 sequence (Q06187 whole entry): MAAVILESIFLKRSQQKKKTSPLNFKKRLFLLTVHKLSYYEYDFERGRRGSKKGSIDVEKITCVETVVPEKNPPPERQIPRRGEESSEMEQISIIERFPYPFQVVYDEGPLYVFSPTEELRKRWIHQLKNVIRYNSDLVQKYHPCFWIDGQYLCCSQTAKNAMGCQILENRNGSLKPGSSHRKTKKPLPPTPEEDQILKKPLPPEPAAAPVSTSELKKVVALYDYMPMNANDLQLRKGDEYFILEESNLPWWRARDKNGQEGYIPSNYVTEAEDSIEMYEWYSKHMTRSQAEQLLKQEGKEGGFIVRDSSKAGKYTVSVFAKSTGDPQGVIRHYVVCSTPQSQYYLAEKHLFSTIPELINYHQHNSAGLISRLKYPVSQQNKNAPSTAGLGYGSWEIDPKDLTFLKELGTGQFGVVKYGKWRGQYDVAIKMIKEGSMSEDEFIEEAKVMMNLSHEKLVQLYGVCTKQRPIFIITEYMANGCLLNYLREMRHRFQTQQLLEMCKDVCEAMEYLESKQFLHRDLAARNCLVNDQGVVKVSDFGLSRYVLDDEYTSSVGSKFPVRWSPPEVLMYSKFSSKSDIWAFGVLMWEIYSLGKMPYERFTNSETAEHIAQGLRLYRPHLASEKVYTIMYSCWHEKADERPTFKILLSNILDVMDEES
As to the kind of experiment: Whole blood compound screening, phosphorylation of Y223 site of BTK (MSD assay). The settings on record: healthy human whole blood, 2 hours at 37° C., 3 separate donors; read-out: WB BTK-pY223 EC50. Type of assay: cell-based. The procedure: Healthy human whole blood (WB) was collected from […]™ Technologies or […]® in sodium heparinized tubes. Whole blood was stored at ambient temperature to avoid coagulation. Each compound was tested in 3 separate donors. Compound stock solutions (10 mM) were used to generate dose titration (8 concentrations, starting concentration 10 μM, 1:4 dilution) in appropriate volume of dimethyl sulfoxide (0.2%). Whole blood was incubated with compounds in 96-well plates for 2 hours in tissue culture incubators at 37° C. under a 5% CO2 atmosphere. The whole blood was lysed in equal volume of lysis buffer (Cell Signaling Technology®, Danvers, Mass.) containing complete protease inhibitor tablet, PhosSTOP™ tablet, sodium orthovanadate and sodium fluoride and phenylmethanesulfonyl fluoride solution. The lysed whole blood was then frozen at −80° C. for overnight.
Phosphorylation of Y223 of BTK was measured using an MSD assay (Meso Scale Diagnostics, LLC, Rockville, Md.). The thawed lysed whole blood was incubated with the capturing antibody rabbit anti-human BTK (D3H5) (Cell Signaling Technology, Danvers, Mass.) at 4° C. overnight. After washing out the unbound samples, the detection antibody biotinylated rabbit anti-pY223-BTK(D9T6H) (Cell Signaling Technology®, Danvers, Mass.) was added to the plates. After washing out the unbound antibodies, SULFO-TAG Streptavidin (Meso Scale Diagnostics, LLC, Rockville, Md.) was used for detection on Meso Sector S600 (Meso Scale Diagnostics, LLC, Rockville, Md.).
The EC50 values were determined using software from Dotmatics. The activity of exemplary compounds is illustrated below.

Each structure is given as a SMILES string.

T1 sequence (Q06187 whole entry): as above

With `C=CC(=O)N1CCC(C2CCNc3c2nn(-c2ccc(Oc4ccccc4)cc2)c3C(N)=O)CC1` (racemic) [Example 1, Rac-2-(4-phenoxyphenyl)-7-[1-(prop-2-enoyl)piperidin-4-yl]-4,5,6,7-tetrahydro-2H-pyrazolo[4,3-b]pyridine-3-carboxamide], in assay [1], the IC50 (in general, the midpoint of a concentration-inhibition curve) is 0.426 nM. The EC50 (usually the concentration that produces a half-maximal response) in assay [2] is 42.2 nM.

As for `C=CC(=O)N1C[C@@H]2CN(C3CCNc4c3nn(-c3ccc(Oc5ccccc5)cc3)c4C(N)=O)C[C@@H]2C1` (mixture of isomers) [Example 66, 2-(4-phenoxyphenyl)-7-[rac-(3aR,6aS)-5-(prop-2-enoyl)hexahydropyrrolo[3,4-c]pyrrol-2(1H)-yl]-4,5,6,7-tetrahydro-2H-pyrazolo[4,3-b]pyridine-3-carboxamide], the IC50 in assay [1] amounted to 65.7 nM. Also, the EC50 in assay [2] was found to be 1820 nM.

For the compound `C=CC(=O)N1CCN(C2CCNc3c2nn(-c2ccc(Oc4ccccc4)cc2)c3C(N)=O)CC1` (centres unmarked) [Example 3, 2-(4-phenoxyphenyl)-7-[4-(prop-2-enoyl)piperazin-1-yl]-4,5,6,7-tetrahydro-2H-pyrazolo[4,3-b]pyridine-3-carboxamide], the IC50 in assay [1] worked out at 0.993 nM. Also, the EC50 in assay [2] turned out to be 40.7 nM.

For `C=CC(=O)N1CCC([C@H]2CCNc3c2nn(-c2ccc(Oc4ccccc4)cc2)c3C(N)=O)CC1` [Example 4, (7R)-2-(4-phenoxyphenyl)-7-[1-(prop-2-enoyl)piperidin-4-yl]-4,5,6,7-tetrahydro-2H-pyrazolo[4,3-b]pyridine-3-carboxamide], in assay [1], the IC50 is 0.331 nM. For the same compound, the EC50 in assay [2] turned out to be 35.7 nM.

For the compound `C=CC(=O)N1CCC(C2CCNc3c2nn(-c2ccc(Oc4cccc(F)c4)cc2)c3C(N)=O)CC1` (centres unmarked) [Example 12, 2-[4-(3-fluorophenoxy)phenyl]-7-[1-(prop-2-enoyl)piperidin-4-yl]-4,5,6,7-tetrahydro-2H-pyrazolo[4,3-b]pyridine-3-carboxamide], the IC50 in assay [1] was determined as 0.495 nM. In addition, the EC50 in assay [2] came out at 32.9 nM.

Regarding `C=CC(=O)N1CCC(C2CCNc3c2nn(-c2ccc(Oc4cccc(OC)c4)cc2)c3C(N)=O)CC1` (centres unmarked) [Example 15, 2-[4-(3-methoxyphenoxy)phenyl]-7-[1-(prop-2-enoyl)piperidin-4-yl]-4,5,6,7-tetrahydro-2H-pyrazolo[4,3-b]pyridine-3-carboxamide], the IC50 in assay [1] was found to be 0.684 nM. Further, the EC50 in assay [2] was found to be 55.6 nM.

Take `C=CC(=O)N1CCC(N2CCNc3c2nn(-c2ccc(Oc4ccccc4)cc2)c3C(N)=O)CC1` [Example 16, 2-(4-phenoxyphenyl)-7-[1-(prop-2-enoyl)piperidin-4-yl]-4,5,6,7-tetrahydro-2H-pyrazolo[3,4-b]pyrazine-3-carboxamide]: in assay [1], the IC50 worked out at 0.592 nM. Besides, in assay [2], the EC50 was 18.3 nM.

`C=CC(=O)N1CC(N2CCNc3c2nn(-c2ccc(Oc4ccccc4)cc2)c3C(N)=O)C1` [Example 22, 2-(4-phenoxyphenyl)-7-[1-(prop-2-enoyl)azetidin-3-yl]-4,5,6,7-tetrahydro-2H-pyrazolo[3,4-b]pyrazine-3-carboxamide]: the IC50 in assay [1] is 1.11 nM. In addition, the EC50 in assay [2] was found to be 38.2 nM.

For the compound `C=CC(=O)N1CCC(C2CCNc3c2nn(-c2ccc(Oc4cccc(C)c4)cc2)c3C(N)=O)CC1` (centres unmarked) [Example 24, 2-[4-(3-methylphenoxy)phenyl]-7-[1-(prop-2-enoyl)piperidin-4-yl]-4,5,6,7-tetrahydro-2H-pyrazolo[4,3-b]pyridine-3-carboxamide], in assay [1], the IC50 was found to be 0.735 nM. Further, the EC50 in assay [2] is 92.9 nM.

On to `C=CC(=O)N1CCC([C@H]2CCNc3c2nn(-c2ccc(Oc4ccc(F)cc4F)cc2)c3C(N)=O)CC1` [Example 30, (7R)-2-[4-(2,4-difluorophenoxy)phenyl]-7-[1-(prop-2-enoyl)piperidin-4-yl]-4,5,6,7-tetrahydro-2H-pyrazolo[4,3-b]pyridine-3-carboxamide], for which the IC50 in assay [1] is 1.05 nM. The EC50 in assay [2] worked out at 45.3 nM.

With `C=CC(=O)N1[C@@H]2CC[C@H]1CN(C1CCNc3c1nn(-c1ccc(Oc4ccccc4)cc1)c3C(N)=O)C2` (stereo partly drawn) [Example 35, 2-(4-phenoxyphenyl)-7-[(1R,5S)-8-(prop-2-enoyl)-3,8-diazabicyclo[3.2.1]octan-3-yl]-4,5,6,7-tetrahydro-2H-pyrazolo[4,3-b]pyridine-3-carboxamide], the IC50 in assay [1] turned out to be 0.884 nM. Besides, the EC50 in assay [2] amounted to 128 nM.

Consider `C=CC(=O)N1CCN(C2CCNc3c2nn(-c2ccc(Oc4ccccc4)cc2)c3C(N)=O)C[C@@H]1C` (stereo partly drawn) [Example 43, 7-[(3S)-3-methyl-4-(prop-2-enoyl)piperazin-1-yl]-2-(4-phenoxyphenyl)-4,5,6,7-tetrahydro-2H-pyrazolo[4,3-b]pyridine-3-carboxamide], for which, in assay [1], the IC50 amounted to 1.17 nM. In addition, in assay [2], the EC50 is 62.5 nM.

Regarding `C=CC(=O)N1CCN([C@@H]2CCNc3c2nn(-c2ccc(Oc4ccc(O)cc4)cc2)c3C(N)=O)CC1` [Example 44, (7R)-2-[4-(4-hydroxyphenoxy)phenyl]-7-[4-(prop-2-enoyl)piperazin-1-yl]-4,5,6,7-tetrahydro-2H-pyrazolo[4,3-b]pyridine-3-carboxamide], the IC50 in assay [1] turned out to be 15.4 nM. Moreover, the EC50 in assay [2] was 158 nM.

In the case of `C=CC(=O)N1CCN(C2CCNc3c2nn(-c2ccc(Oc4ccccc4)cc2)c3C(N)=O)CC12CC2` (centres unmarked) [Example 53, 2-(4-phenoxyphenyl)-7-[4-(prop-2-enoyl)-4,7-diazaspiro[2.5]octan-7-yl]-4,5,6,7-tetrahydro-2H-pyrazolo[4,3-b]pyridine-3-carboxamide], in assay [1], the IC50 came to 1.2 nM. Also, in assay [2], the EC50 is 71.8 nM.

In the case of `C=CC(=O)N1CCN(C2CCNc3c2nn(-c2ccc(Oc4ccccc4C(F)(F)F)cc2)c3C(N)=O)CC1` (centres unmarked) [Example 54, 7-[4-(prop-2-enoyl)piperazin-1-yl]-2-{4-[2-(trifluoromethyl)phenoxy]phenyl}-4,5,6,7-tetrahydro-2H-pyrazolo[4,3-b]pyridine-3-carboxamide], the IC50 in assay [1] turned out to be 1.19 nM. The EC50 in assay [2] is 76.7 nM.

In the case of `C=CC(=O)N1CCN(C2CCNc3c2nn(-c2ccc(Oc4cccc(F)c4)cc2)c3C(N)=O)CC1` (centres unmarked) [Example 57, 2-[4-(3-fluorophenoxy)phenyl]-7-[4-(prop-2-enoyl)piperazin-1-yl]-4,5,6,7-tetrahydro-2H-pyrazolo[4,3-b]pyridine-3-carboxamide], the IC50 in assay [1] stood at 1.76 nM. Besides, the EC50 in assay [2] turned out to be 85.9 nM.

Regarding `C=CC(=O)N1CCN([C@@H]2CCNc3c2nn(-c2ccc(Oc4ccccc4C(F)(F)F)cc2)c3C(N)=O)CC1` [Example 60, (7R)-7-[4-(prop-2-enoyl)piperazin-1-yl]-2-{4-[2-(trifluoromethyl)phenoxy]phenyl}-4,5,6,7-tetrahydro-2H-pyrazolo[4,3-b]pyridine-3-carboxamide], the IC50 in assay [1] is 1.42 nM. Besides, the EC50 in assay [2] turned out to be 83.4 nM.

For the compound `C=CC(=O)N1CCN([C@@H]2CCNc3c2nn(-c2ccc(Oc4cccc(C#N)c4)cc2)c3C(N)=O)CC1` [Example 64, (7R)-2-[4-(3-cyanophenoxy)phenyl]-7-[4-(prop-2-enoyl)piperazin-1-yl]-4,5,6,7-tetrahydro-2H-pyrazolo[4,3-b]pyridine-3-carboxamide], the IC50 in assay [1] was 5.58 nM. Also, the EC50 in assay [2] worked out at 75 nM.

As to `C=CC(=O)N1CCN([C@@H]2CCNc3c2nn(-c2ccc(Oc4cccc(C(F)(F)F)c4)cc2)c3C(N)=O)CC1` [Example 65, (7R)-7-[4-(prop-2-enoyl)piperazin-1-yl]-2-{4-[3-(trifluoromethyl)phenoxy]phenyl}-4,5,6,7-tetrahydro-2H-pyrazolo[4,3-b]pyridine-3-carboxamide], in assay [1], the IC50 worked out at 0.953 nM. For the same compound, the EC50 in assay [2] came to 34.2 nM.

(Values after US20220213092A1, “BICYCLIC PYRAZOLE BRUTON'S TYROSINE KINASE INHIBITORS” (AbbVie Inc., priority 2020, published 2022).)
